Results reported in patent publication US10233173B2, “Substituted 1,2,3-triazoles as NR2B-selective NMDA modulators” (JANSSEN PHARMACEUTICA NV, priority 2016, dated 2019).

biological target: human GluN1/GluN2B NMDA receptors (Homo sapiens, UniProt Q05586+Q13224); assay: Cell-based calcium flux (FLIPR) assay on cloned human NR1/NR2B ion channels expressed in mammalian cells; details: standard assay; human GluN1/GluN2B, calcium flux (FLIPR), glutamate ~EC80
Protocol: Effects of Test Articles on Cloned Human NR1/NR2B Ion Channels Expressed in Mammalian Cells
NMDA receptors are ion channels that are highly permeable to Ca^2+ ions, rendering it possible to monitor NMDA receptor function using cell-based calcium flux assay. In this assay, co-agonists glutamate and glycine are added to cells heterologously expressing human GluN1/GluN2B NMDA receptors to initiate cellular Ca^2+ influx. The time course of the changes in intracellular calcium is measured using a fluorescent dye and a FLIPR (Fluorometric Imaging Plate Reader) device.
Twenty four hours before measurements, the expression of the NMDA receptors in the stable cell line is induced with Tet-On inducible system in the presence of a non-selective NMDA receptor blocker. On the day of the experiment, cell culture media is carefully washed and the cells are loaded with Calcium 5 Dye Kit (Molecular Devices) in dye loading buffer containing 149 mM NaCl, 4 mM KCl, 2 mM CaCl2, and 1.5 mM MgCl2, 10 mM HEPES and 5 mM D-glucose; pH 7.4. After 1 h incubation at the room temperature, the dye is washed away with the assay buffer (149 mM NaCl (standard assay) or 150 mM (HTS assay), 4 mM KCl (standard assay) or 3 mM (HTS assay), 2 mM CaCl2, 0.01 mM EDTA, 10 mM HEPES and 5 mM D-glucose; pH 7.4) In the FLIPR TETRA reader, various concentrations of the test compounds are added to the cells for 5 min while fluorescence is monitored to detect potential agonist activity. Next, co-agonists, glutamate and glycine are added for another 5 minutes. The concentration of glutamate corresponding to ˜EC80 (standard assay) or EC40 (HTS assay) is used to maximize the assay's signal window or the ability to detect NMDA receptor antagonists and negative allosteric modulators, respectively. A saturating concentration (10 μM) of glycine is also present in the assay. […] The fluorescent signal in the presence of test compounds is quantified and normalized to the signal defined by the appropriate control wells.

human GluN1/GluN2B NMDA receptors, sequence (Q13224 27-1484, other chains not shown): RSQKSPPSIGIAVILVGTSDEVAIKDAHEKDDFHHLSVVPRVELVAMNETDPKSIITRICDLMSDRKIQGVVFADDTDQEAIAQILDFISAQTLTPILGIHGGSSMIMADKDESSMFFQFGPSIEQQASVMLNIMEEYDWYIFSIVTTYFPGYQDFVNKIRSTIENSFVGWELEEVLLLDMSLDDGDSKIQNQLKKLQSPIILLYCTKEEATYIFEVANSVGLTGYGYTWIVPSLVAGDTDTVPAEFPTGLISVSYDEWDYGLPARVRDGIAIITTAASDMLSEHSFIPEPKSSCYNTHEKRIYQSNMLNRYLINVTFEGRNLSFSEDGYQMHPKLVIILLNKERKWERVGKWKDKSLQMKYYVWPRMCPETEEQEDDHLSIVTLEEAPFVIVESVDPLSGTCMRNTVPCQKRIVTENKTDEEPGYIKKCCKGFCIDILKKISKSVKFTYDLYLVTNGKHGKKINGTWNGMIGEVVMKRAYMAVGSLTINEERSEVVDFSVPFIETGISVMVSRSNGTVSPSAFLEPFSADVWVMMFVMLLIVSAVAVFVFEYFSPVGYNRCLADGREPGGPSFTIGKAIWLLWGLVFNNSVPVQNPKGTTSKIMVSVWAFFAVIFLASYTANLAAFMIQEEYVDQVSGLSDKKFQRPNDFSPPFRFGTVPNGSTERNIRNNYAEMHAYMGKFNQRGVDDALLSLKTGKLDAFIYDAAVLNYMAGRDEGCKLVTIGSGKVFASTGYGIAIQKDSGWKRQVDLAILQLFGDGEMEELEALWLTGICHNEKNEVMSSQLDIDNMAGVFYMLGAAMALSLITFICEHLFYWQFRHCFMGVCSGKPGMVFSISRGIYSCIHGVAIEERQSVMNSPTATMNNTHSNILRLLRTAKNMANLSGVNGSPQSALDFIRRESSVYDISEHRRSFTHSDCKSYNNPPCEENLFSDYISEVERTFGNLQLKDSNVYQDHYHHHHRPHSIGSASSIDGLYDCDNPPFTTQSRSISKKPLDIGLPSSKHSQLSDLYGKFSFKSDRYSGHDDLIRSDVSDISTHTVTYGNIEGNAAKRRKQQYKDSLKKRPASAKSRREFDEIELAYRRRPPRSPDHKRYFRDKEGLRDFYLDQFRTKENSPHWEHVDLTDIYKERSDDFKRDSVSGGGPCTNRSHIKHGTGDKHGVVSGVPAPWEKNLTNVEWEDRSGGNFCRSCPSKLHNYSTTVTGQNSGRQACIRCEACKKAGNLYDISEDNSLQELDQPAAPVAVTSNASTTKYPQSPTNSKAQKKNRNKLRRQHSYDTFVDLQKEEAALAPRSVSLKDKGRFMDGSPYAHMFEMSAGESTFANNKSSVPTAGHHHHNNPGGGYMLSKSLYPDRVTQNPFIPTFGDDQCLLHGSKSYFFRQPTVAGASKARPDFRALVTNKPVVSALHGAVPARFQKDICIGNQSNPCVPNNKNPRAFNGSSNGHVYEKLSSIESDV

| Structure (SMILES) | IC50 [µM] |
| --- | --- |
| Cc1cnc(OCc2cn(-c3ccc(F)c(Br)c3)nn2)nc1 [Example 16, 2-[[1-(3-Bromo-4-fluoro-phenyl)triazol-4-yl]methoxy]-5-methylpyrimidine] | 0.001 |
| Cc1ccnc(OCc2cn(-c3ccc(F)c(Br)c3)nn2)n1 [Example 17, 2-[[1-(3-Bromo-4-fluoro-phenyl)triazol-4-yl]methoxy]-4-methylpyrimidine] | 0.01 |
| Cc1cc(C)nc(OCc2cn(-c3ccc(F)c(Br)c3)nn2)n1 [Example 18, 2-[[1-(3-Bromo-4-fluoro-phenyl)triazol-4-yl]methoxy]-4,6-dimethyl-pyrimidine] | 0.082 |
| Fc1cnc(OCc2cn(-c3ccc(F)c(Br)c3)nn2)nc1 [Example 19, 2-[[1-(3-Bromo-4-fluoro-phenyl)triazol-4-yl]methoxy]-5-fluoropyrimidine] | 0.056 |
| COc1cc(-n2cc(COc3ncccn3)nn2)ccc1F [Example 20, 2-[[1-(4-Fluoro-3-methoxy-phenyl)triazol-4-yl]methoxy]pyrimidine] | 1 |
| Cc1ccnc(OCc2cn(-c3ccc(Cl)c(OC(F)F)c3)nn2)n1 [Example 21, 2-[[1-[4-Chloro-3-(difluoromethoxy)phenyl]triazol-4-yl]methoxy]-4-methyl-pyrimidine] | 0.002 |
| Cc1cnc(OCc2cn(-c3ccc(Cl)c(OC(F)F)c3)nn2)nc1 [Example 22, 2-[[1-[4-Chloro-3-(difluoromethoxy)phenyl]triazol-4-yl]methoxy]-5-methyl-pyrimidine] | 0.002 |
| FC(F)Oc1cc(-n2cc(COc3cnccn3)nn2)ccc1Cl [Example 23, 2-[[1-[4-Chloro-3-(difluoromethoxy)phenyl]triazol-4-yl]methoxy]pyrazine] | 0.456 |
| Fc1ccc(-n2cc(CNc3ncccn3)nn2)cc1C(F)F [Example 24, N-[[1-[3-(Difluoromethyl)-4-fluoro-phenyl]triazol-4-yl]methyl]pyrimidin-2-amine] | 0.824 |
| Fc1ccc(-n2cc(COc3ncccn3)nn2)cc1C(F)F [Example 25, 2-((1-(3-(difluoromethyl)-4-fluorophenyl)-1H-1,2,3-triazol-4-yl)methoxy)pyrimidine] | 0.05 |
| COc1cnc(OCc2cn(-c3ccc(Cl)c(OC(F)F)c3)nn2)nc1 [Example 26, 2-[[1-[4-Chloro-3-(difluoromethoxy)phenyl]triazol-4-yl]methoxy]-5-methoxy-pyrimidine] | 0.003 |
| CCc1cnc(OCc2cn(-c3ccc(Cl)c(OC(F)F)c3)nn2)nc1 [Example 27, 2-[[1-[4-Chloro-3-(difluoromethoxy)phenyl]triazol-4-yl]methoxy]-5-ethyl-pyrimidine] | 0.009 |
| FC(F)Oc1cc(-n2cc(COc3ncc(Cl)cn3)nn2)ccc1Cl [Example 28, 5-Chloro-2-[[1-[4-chloro-3-(difluoromethoxy)phenyl]triazol-4-yl]methoxy]pyrimidine] | 0.002 |
| COc1ccnc(OCc2cn(-c3ccc(Cl)c(OC(F)F)c3)nn2)n1 [Example 29, 2-[[1-[4-Chloro-3-(difluoromethoxy)phenyl]triazol-4-yl]methoxy]-4-methoxy-pyrimidine] | 0.011 |
| Cc1ccnc(OCc2cn(-c3ccc(Cl)c(C(F)F)c3)nn2)n1 [Example 30, 2-[[1-[4-Chloro-3-(difluoromethyl)phenyl]triazol-4-yl]methoxy]-4-methyl-pyrimidine] | 0.004 |
| Cc1cnc(OCc2cn(-c3ccc(Cl)c(C(F)F)c3)nn2)nc1 [Example 31, 2-[[1-[4-Chloro-3-(difluoromethyl)phenyl]triazol-4-yl]methoxy]-5-methyl-pyrimidine] | 0.001 |
| CCc1cnc(OCc2cn(-c3ccc(Cl)c(C(F)F)c3)nn2)nc1 [Example 32, 2-[[1-[4-Chloro-3-(difluoromethyl)phenyl]triazol-4-yl]methoxy]-5-ethyl-pyrimidine] | 0.002 |
| Fc1ccc(-n2cc(COc3ncccn3)nn2)cc1OC(F)F [Example 33, 2-[[1-[3-(Difluoromethoxy)-4-fluoro-phenyl]triazol-4-yl]methoxy]pyrimidine] | 0.018 |
| Cc1cnc(OCc2cn(-c3ccc(Cl)c(OC(F)F)c3)nn2)cn1 [Example 34, 2-[[1-[4-Chloro-3-(difluoromethoxy)phenyl]triazol-4-yl]methoxy]-5-methyl-pyrazine] | 0.159 |

| Structure (SMILES) | IC50 [µM] |
| --- | --- |
| FC(F)Oc1cnc(OCc2cn(-c3ccc(Cl)c(OC(F)F)c3)nn2)nc1 [Example 35, 2-[[1-[4-Chloro-3-(difluoromethoxy)phenyl]triazol-4-yl]methoxy]-5-(difluoromethoxy)pyrimidine] | 0.006 |
| Fc1ccc(-n2cc(CNc3ncccn3)nn2)cc1OC(F)F [Example 36, N-[[1-[3-(Difluoromethoxy)-4-fluoro-phenyl]triazol-4-yl]methyl]pyrimidin-2-amine] | 0.351 |
| Cc1c(F)ccc(-n2cc(COc3ncc(Cl)cn3)nn2)c1F [Example 37, 5-Chloro-2-[[1-(2,4-difluoro-3-methyl-phenyl)triazol-4-yl]methoxy]pyrimidine] | 0.053 |
| Cc1cnc(OCc2cn(-c3ccc(F)c(C)c3F)nn2)nc1 [Example 38, 2-[[1-(2,4-Difluoro-3-methyl-phenyl)triazol-4-yl]methoxy]-5-methyl-pyrimidine] | 0.027 |
| CCc1cnc(OCc2cn(-c3ccc(F)c(C)c3F)nn2)nc1 [Example 39, 2-[[1-(2,4-Difluoro-3-methyl-phenyl)triazol-4-yl]methoxy]-5-ethyl-pyrimidine] | 0.015 |
| CCc1cnc(OCc2cn(-c3ccc(F)c(Br)c3)nn2)nc1 [Example 40, 2-[[1-(3-Bromo-4-fluoro-phenyl)triazol-4-yl]methoxy]-5-ethyl-pyrimidine] | 0.001 |
| Fc1ccc(-n2cc(COc3ncc(Cl)cn3)nn2)cc1Br [Example 42, 2-((1-(3-bromo-4-fluorophenyl)-1H-1,2,3-triazol-4-yl)methoxy)-5-chloropyrimidine] | 0.003 |
| CC(C)c1cnc(OCc2cn(-c3ccc(F)c(Br)c3)nn2)nc1 [Example 43, 2-[[1-(3-Bromo-4-fluoro-phenyl)triazol-4-yl]methoxy]-5-isopropylpyrimidine] | 0.005 |
| Fc1ccc(-n2cc(COc3ncc(C(F)(F)F)cn3)nn2)cc1Br [Example 44, 2-[[1-(3-Bromo-4-fluoro-phenyl)triazol-4-yl]methoxy]-5-(trifluoromethyl)pyrimidine] | 0.005 |
| FC(F)c1cc(-n2cc(COc3ncc(C(F)(F)F)cn3)nn2)ccc1Cl [Example 45, 2-[[1-[4-Chloro-3-(difluoromethyl)phenyl]triazol-4-yl]methoxy]-5-(trifluoromethyl)pyrimidine] | 0.004 |
| COc1cnc(OCc2cn(-c3ccc(Cl)c(C(F)F)c3)nn2)nc1 [Example 46, 2-[[1-[4-Chloro-3-(difluoromethyl)phenyl]triazol-4-yl]methoxy]-5-methoxy-pyrimidine] | 0.001 |
| FC(F)c1cc(-n2cc(COc3ncc(Cl)cn3)nn2)ccc1Cl [Example 47, 5-Chloro-2-[[1-[4-chloro-3-(difluoromethyl)phenyl]triazol-4-yl]methoxy]pyrimidine] | 0.003 |
| CC(C)c1cnc(OCc2cn(-c3ccc(Cl)c(C(F)F)c3)nn2)nc1 [Example 48, 2-[[1-[4-Chloro-3-(difluoromethyl)phenyl]triazol-4-yl]methoxy]-5-isopropyl-pyrimidine] | 0.008 |
| Fc1ccc(-n2cc(COc3ncc(Cl)cn3)nn2)cc1C(F)F [Example 49, 5-Chloro-2-[[1-[3-(difluoromethyl)-4-fluoro-phenyl]triazol-4-yl]methoxy]pyrimidine] | 0.003 |
| Fc1ccc(-n2cc(COc3ncc(C(F)(F)F)cn3)nn2)cc1C(F)F [Example 50, 2-[[1-[3-(Difluoromethyl)-4-fluoro-phenyl]triazol-4-yl]methoxy]-5-(trifluoromethyl)pyrimidine] | 0.007 |
| Cc1cnc(OCc2cn(-c3ccc(F)c(C(F)F)c3)nn2)nc1 [Example 51, 2-[[1-[3-(Difluoromethyl)-4-fluoro-phenyl]triazol-4-yl]methoxy]-5-methyl-pyrimidine] | 0.001 |
| Cc1ccnc(OCc2cn(-c3ccc(F)c(C(F)F)c3)nn2)n1 [Example 52, 2-[[1-[3-(Difluoromethyl)-4-fluoro-phenyl]triazol-4-yl]methoxy]-4-methyl-pyrimidine] | 0.008 |
| Fc1ccc(-n2cc(COc3ncc(Cl)cn3)nn2)cc1OC(F)F [Example 61, 5-Chloro-2-[[1-[3-(difluoromethoxy)-4-fluoro-phenyl]triazol-4-yl]methoxy]pyrimidine] | 0.003 |
| Fc1ccc(-n2cc(COc3ncc(C(F)(F)F)cn3)nn2)cc1OC(F)F [Example 62, 2-[[1-[3-(Difluoromethoxy)-4-fluoro-phenyl]triazol-4-yl]methoxy]-5-(trifluoromethyl)pyrimidine] | 0.007 |
